Laboratory results published in PubChem BioAssay AID330 (DTP/NCI, 2004).
Where “and” joins values, the source holds several entries; their conditions need not be identical. Equal entries are not always repeated. Toxic doses and inconclusive results are not listed.

Test system: P388 leukemia ip, CD2F1 mice, survival T/C
Experiment: NCI In Vivo Anticancer Drug Screen. Data for tumor model P388 Leukemia (intraperitoneal) in CD2F1 (CDF1) mice
Details: endpoint: median survival time, higher = longer survival
Summary of the method: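 Mice carrying the transplanted tumor received test compound or vehicle. Survival was recorded in each group, and the value is the treated-group measurement divided by that of the vehicle-treated control group.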

[1] = dose: 50.0 mg/kg/injection, schedule: Q01DX009 (ip), vehicle: saline
[2] = dose: 50.0 mg/kg/injection, schedule: Q01DX005 (ip), vehicle: saline with Tween-80
[3] = dose: 100.0 mg/kg/injection, schedule: Q01DX005 (ip), vehicle: saline with Tween-80
[4] = dose: 200.0 mg/kg/injection, schedule: Q01DX005 (ip), vehicle: saline with Tween-80
[5] = dose: 6.25 mg/kg/injection, schedule: Q01DX009 (ip), vehicle: saline
[6] = dose: 12.5 mg/kg/injection, schedule: Q01DX009 (ip), vehicle: saline
[7] = dose: 25.0 mg/kg/injection, schedule: Q01DX009 (ip), vehicle: saline
[8] = dose: 25.0 mg/kg/injection, schedule: Q01DX009 (ip), vehicle: saline with Tween-80
[9] = dose: 50.0 mg/kg/injection, schedule: Q01DX009 (ip), vehicle: saline with Tween-80
[10] = dose: 100.0 mg/kg/injection, schedule: Q01DX009 (ip), vehicle: saline with Tween-80
[11] = dose: 100.0 mg/kg/injection, schedule: Q04DX003 (ip), vehicle: saline
[12] = dose: 200.0 mg/kg/injection, schedule: Q04DX003 (ip), vehicle: saline
[13] = dose: 400.0 mg/kg/injection, schedule: Q04DX003 (ip), vehicle: saline
[14] = dose: 50.0 mg/kg/injection, schedule: Q01DX009 (ip), vehicle: Klucel (hydroxypropylcellulose) (HPC)
[15] = dose: 100.0 mg/kg/injection, schedule: Q01DX009 (ip), vehicle: Klucel (hydroxypropylcellulose) (HPC)
[16] = dose: 200.0 mg/kg/injection, schedule: Q01DX009 (ip), vehicle: saline with Tween-80

With `C=C1C(=O)OC2CC3(CO3)C3CC(OC(C)=O)C(=C)C3(O)CC12` (stereo not drawn) the T/C (dose: 8.0 mg/kg/injection, schedule: Q01DX009 (ip), vehicle: Klucel (hydroxypropylcellulose) (HPC)) was 99 % of control, the T/C (dose: 16.0 mg/kg/injection, schedule: Q01DX009 (ip), vehicle: Klucel (hydroxypropylcellulose) (HPC)) was 116 % of control and the T/C (dose: 32.0 mg/kg/injection, schedule: Q01DX009 (ip), vehicle: Klucel (hydroxypropylcellulose) (HPC)) was 119 % of control. For the same molecule, the T/C (dose: 64.0 mg/kg/injection, schedule: Q01DX009 (ip), vehicle: Klucel (hydroxypropylcellulose) (HPC)) was 114 % of control.
In the case of `CCNC1=C(C(=O)c2ccccc2)CCC1`, the T/C [1] is reported as 109 % of control, the T/C (dose: 100.0 mg/kg/injection, schedule: Q01DX009 (ip), vehicle: saline) is reported as 104 % of control and the T/C (dose: 200.0 mg/kg/injection, schedule: Q01DX009 (ip), vehicle: saline) is reported as 109 % of control.
For `CCOC(=O)N1CCc2cc3c(cc2C1Cc1ccc(OC)c(OC)c1COC(C)=O)OCO3` (stereo not drawn), the T/C [2] was 100 % of control, the T/C [3] was 100 % of control and the T/C [4] was 89 % of control.
With `CCOC(=O)NSCC` the T/C [5] was 100 % of control, the T/C [6] was 103 % of control and the T/C [7] was 105 % of control.
In the case of `N=C(N)SCc1nc(-c2ccc(Cl)cc2)no1`, the T/C (dose: 6.25 mg/kg/injection, schedule: Q01DX009 (ip), vehicle: saline with Tween-80) is reported as 109 % of control, the T/C [5] is reported as 98 % of control and the T/C (dose: 12.5 mg/kg/injection, schedule: Q01DX009 (ip), vehicle: saline with Tween-80) is reported as 106 % of control. The T/C [6] was 104 % of control and 106 % of control, the T/C [8] was 106 % of control and the T/C [7] was 108 % of control and 111 % of control. The T/C [9] was 113 % of control and the T/C [1] was 110 % of control and 121 % of control and 123 % of control.
For `O=C1c2ccccc2-c2nc3ccccc3nc21`, the T/C [2] was 94 % of control and the T/C [3] was 94 % of control.
For `Cc1ccc(Cl)cc1NC(=O)N(C)CCO`, the T/C (dose: 60.0 mg/kg/injection, schedule: Q01DX005 (ip), vehicle: Klucel (hydroxypropylcellulose) (HPC)) was 103 % of control, the T/C (dose: 120.0 mg/kg/injection, schedule: Q01DX005 (ip), vehicle: Klucel (hydroxypropylcellulose) (HPC)) was 103 % of control and the T/C (dose: 240.0 mg/kg/injection, schedule: Q01DX005 (ip), vehicle: Klucel (hydroxypropylcellulose) (HPC)) was 94 % of control.
For `C=C(C)C(=O)NCC(=O)NCC(=O)NCC(=O)Oc1ccc([N+](=O)[O-])cc1`, the T/C (dose: 50.0 mg/kg/injection, schedule: Q04DX003 (ip), vehicle: saline with Tween-80) was 100 % of control, the T/C (dose: 100.0 mg/kg/injection, schedule: Q04DX003 (ip), vehicle: saline with Tween-80) was 90 % of control and the T/C (dose: 200.0 mg/kg/injection, schedule: Q04DX003 (ip), vehicle: saline with Tween-80) was 99 % of control.
In the case of `C[C@@H]1C[C@H](C)OC(CO)O1` (stereo partly drawn) (tested in a mixture with another compound), the T/C (dose: 60.0 mg/kg/injection, schedule: Q01DX005 (ip), vehicle: saline) is reported as 100 % of control, the T/C (dose: 120.0 mg/kg/injection, schedule: Q01DX005 (ip), vehicle: saline) is reported as 99 % of control and the T/C (dose: 240.0 mg/kg/injection, schedule: Q01DX005 (ip), vehicle: saline) is reported as 97 % of control.
`C#CCOc1ccc(C)cc1` was tested, and the T/C [8] was 108 % of control, the T/C [9] was 108 % of control and the T/C [10] was 113 % of control.
With `[Co+3].[NH-]CC[NH-].[NH-]CC[NH-].[NH-]CC[SH2+].[O-][Cl+3]([O-])([O-])O` the T/C [11] was 100 % of control, the T/C [12] was 100 % of control and the T/C [13] was 102 % of control. For the same molecule, the T/C (dose: 800.0 mg/kg/injection, schedule: Q04DX003 (ip), vehicle: saline) was 99 % of control.
`CCCCCCCCCc1cc(=O)[nH]c(=O)[nH]1` was tested, and the T/C (dose: 100.0 mg/kg/injection, schedule: Q01DX001 (ip), vehicle: Klucel (hydroxypropylcellulose) (HPC)) was 96 % of control, the T/C (dose: 200.0 mg/kg/injection, schedule: Q01DX001 (ip), vehicle: Klucel (hydroxypropylcellulose) (HPC)) was 96 % of control and the T/C (dose: 400.0 mg/kg/injection, schedule: Q01DX001 (ip), vehicle: Klucel (hydroxypropylcellulose) (HPC)) was 94 % of control.
`C#CCOCCCC(=C)C` was tested, and the T/C (dose: 3.12 mg/kg/injection, schedule: Q01DX005 (ip), vehicle: saline) was 103 % of control, the T/C (dose: 6.25 mg/kg/injection, schedule: Q01DX005 (ip), vehicle: saline) was 99 % of control and the T/C (dose: 12.5 mg/kg/injection, schedule: Q01DX005 (ip), vehicle: saline) was 100 % of control. For the same molecule, the T/C (dose: 25.0 mg/kg/injection, schedule: Q01DX005 (ip), vehicle: saline) was 100 % of control.
With `O=C(O)c1c[n+]([O-])ccc1OCc1ccccc1` the T/C [11] was 100 % of control, the T/C [12] was 98 % of control and the T/C [13] was 94 % of control.
With `CSc1cccc(NC(=O)Oc2c(Cl)cccc2Cl)c1` the T/C (dose: 50.0 mg/kg/injection, schedule: Q01DX009 (ip), vehicle: gum acacia) was 113 % of control and the T/C (dose: 100.0 mg/kg/injection, schedule: Q01DX009 (ip), vehicle: gum acacia) was 111 % of control.
`N#Cc1ccc(=O)[nH]c1O` was tested, and the T/C [9] was 99 % of control and the T/C [10] was 100 % of control.
With `CC(=O)OC1COC(NC(=O)N(CCCl)N=O)C(OC(C)=O)C1OC(C)=O` (stereo not drawn) the T/C (dose: 1.5 mg/kg/injection, schedule: Q01DX009 (ip), vehicle: saline with Tween-80) was 111 % of control, the T/C (dose: 3.0 mg/kg/injection, schedule: Q01DX009 (ip), vehicle: saline with Tween-80) was 121 % of control and the T/C (dose: 6.0 mg/kg/injection, schedule: Q01DX009 (ip), vehicle: saline with Tween-80) was 151 % of control. The T/C (dose: 12.0 mg/kg/injection, schedule: Q01DX009 (ip), vehicle: saline with Tween-80) was 161 % of control, the T/C (dose: 24.0 mg/kg/injection, schedule: Q01DX009 (ip), vehicle: saline with Tween-80) was 272 % of control and the T/C (dose: 48.0 mg/kg/injection, schedule: Q01DX009 (ip), vehicle: saline with Tween-80) was 114 % of control.
In the case of `N#CC1C(=O)NC(=O)C(C#N)C1c1ccc(Cl)cc1Cl` (stereo not drawn), the T/C [14] is reported as 96 % of control, the T/C [15] is reported as 105 % of control and the T/C (dose: 200.0 mg/kg/injection, schedule: Q01DX009 (ip), vehicle: Klucel (hydroxypropylcellulose) (HPC)) is reported as 107 % of control.
`CC1=C(N2CC2)C(=O)c2ccccc2C1=O` was tested, and the T/C [14] was 93 % of control and the T/C [15] was 90 % of control.
For `O=[N+]([O-])c1cccc(C(O)(C(F)(F)F)C(F)(F)F)c1`, the T/C [8] was 95 % of control, the T/C [9] was 97 % of control and the T/C [10] was 106 % of control. For the same molecule, the T/C (dose: 100.0 mg/kg/injection, schedule: Q04DX002 (ip), vehicle: suspension in saline) was 112 % of control and the T/C [16] was 98 % of control.
In the case of `CC1(C)CC(=O)C=C(NCc2ccccc2)C1`, the T/C [8] is reported as 104 % of control, the T/C [9] is reported as 104 % of control and 90 % of control and the T/C [10] is reported as 101 % of control and 96 % of control. The T/C [16] was 99 % of control and 91 % of control.
With `Nc1[nH]c(=O)ncc1-c1ccc([N+](=O)[O-])cc1` the T/C (dose: 12.5 mg/kg/injection, schedule: Q01DX005 (ip), vehicle: saline with Tween-80) was 95 % of control, the T/C (dose: 25.0 mg/kg/injection, schedule: Q01DX005 (ip), vehicle: saline with Tween-80) was 97 % of control and the T/C [2] was 101 % of control and 105 % of control.
`C[n+]1ccc2ccccc2c1` was tested, and the T/C (dose: 15.0 mg/kg/injection, schedule: Q01DX005 (ip), vehicle: saline with Tween-80) was 109 % of control, the T/C (dose: 30.0 mg/kg/injection, schedule: Q01DX005 (ip), vehicle: saline with Tween-80) was 100 % of control and the T/C (dose: 60.0 mg/kg/injection, schedule: Q01DX005 (ip), vehicle: saline with Tween-80) was 100 % of control and 104 % of control.
For `COC(=O)c1c(-c2ccccc2)c(C=O)n(C)c1C`, the T/C [2] was 99 % of control, the T/C [3] was 98 % of control and the T/C [4] was 91 % of control.
For `C1CCCN(N2CCOCC2)CC1`, the T/C (dose: 100.0 mg/kg/injection, schedule: Q01DX001 (ip), vehicle: saline) was 104 % of control, the T/C (dose: 200.0 mg/kg/injection, schedule: Q01DX001 (ip), vehicle: saline) was 98 % of control and the T/C (dose: 400.0 mg/kg/injection, schedule: Q01DX001 (ip), vehicle: saline) was 101 % of control.
With `O=C(OC1CC2CCC(C1)S2)c1ccco1` (stereo not drawn) the T/C (dose: 50.0 mg/kg/injection, schedule: Q04DX002 (ip), vehicle: saline with Tween-80) was 109 % of control, the T/C (dose: 100.0 mg/kg/injection, schedule: Q04DX002 (ip), vehicle: saline with Tween-80) was 109 % of control and the T/C (dose: 200.0 mg/kg/injection, schedule: Q04DX002 (ip), vehicle: saline with Tween-80) was 110 % of control.
